{GalNAc3} = trishexylamino-C6 triantennary GalNAc conjugate; e = 2'-O-(2-methoxyethyl) (MOE); d = 2'-deoxy (DNA)
What was measured:
Format in all cases: in vitro ADME
BCRP = test system: T1, BCRP; experiment: BCRP substrate study, bi-directional flux in MDCK cells; conditions: 10 μM ASO, Papp B to A / Papp A to B
T1 construct: expressed in transfected cells; host or cells: MDCK-II cells
Method: (§1) MDCK-MDR1 cells and MDCK-II cells transfected with BCRP were washed with HBSS at 37°C. Wells of the culture plate served as the apical compartment, and 150 μL of HBSS solutions was added to the apical wells. These solutions also contain one of the following: vehicle (for probe substrate controls), 100 μM test article (for test article inhibition experiments), 1 μM Ko143 (for BCRP inhibition), or 3 μM elacridar (for P-gp inhibition). A 96-well receiver tray was prepared with each well containing 300 μL of buffer solution corresponding to the apical wells. Receiver tray wells served as the basal compartment. The plate and receiver tray were assembled and incubated at 37°C for 30 min. The solution was then aspirated from the apical compartment and the 96-well plate was removed from the receiver tray. Donor and receiver wells for inhibition or donor (containing substrate) and receiver (without substrate) wells for substrate studies were then prepared for bi-directional flux studies. For the probe substrate transport assays, HBSS in each donor well contained one of the following probe substrates: BCRP, 2 μM [^3H]-prazosin; or P-gp, 100 nM [^3H]-quinidine. For positive control inhibition assays, HBSS contained the reference inhibitor in both donor and receiver wells, with the probe substrate only in donor wells. […] These samples were counted on a 1450 Microbeta (PerkinElmer). For samples containing test articles, samples were quantitated using LC-MS.
(§2) For BCRP and P-gp, apparent permeability Papp was determined using the equation Papp=(Vr/(A×C0))×(Cr/Δt) whereby Papp is the apparent permeability, Vr is the volume of the receiver compartment (mL), C0 is the initial concentration of the donor solution, A is the monolayer area (cm^2), Cr is the receiver well concentration at the end of the incubation, and Δt represents the change in time from t = 0 (s). The efflux ratio (ER) was determined by dividing Papp in the B→A direction by that in the A→B direction as: ER=Papp(B→A)/Papp(A→B).

OCT2 = test system: T2, OCT2; experiment: OCT2 substrate uptake study in MDCK cells; conditions: 10 μM ASO
T2 construct: expressed in transfected cells; host or cells: MDCK-II
Method: (§3) A 96-well cell culture plate containing a monolayer of MDCK-II cells grown on a permeable support and a corresponding receiver tray was used. The basolateral compartment of the culture plate and wells were washed with warm HBSS three times, with wells of the culture plate serving as the apical compartment. The wash was aspirated by adding 150 μL of 37°C HBSS to both compartments. Plates were incubated at 37°C with orbital shaking at 60 rpm for 15 min for OAT1, OAT3, OCT1, OCT2, OATP1B1, and OATP1B3 (±5 min). The pre-incubation buffer from both compartments was aspirated and 150 μL of the following was added to the basal compartment. For the probe substrate transport assay, HBSS in each well contained one of following probe substrates (positive control for transport), OCT1, 2 μM [^3H]-MPP^+; OCT2, 10 μM [^14C]-metformin; OAT1, 2 μM [^3H]-p-aminohippurate; OAT3, 10 μM [^3H]-p-aminohippurate; OATP1B1, 2 μM [^3H]-estradiol-17 β-D-glucuronide; and OATP1B3, 2 μM [^3H]-cholecystokinin octapeptide (CCK-8). […] Inhibition studies contained HBSS in each well, the probe substrate, and 100 μM of each test article, whereas substrate studies contained HBSS in each well and 10 μM of each test article. […] Samples containing probe substrate were added to 200 μL of scintillation fluid and counted on a 1450 Microbeta (PerkinElmer), whereas samples containing the test article were kept frozen. Test article concentrations, including control samples, were evaluated by an LC-MS method.
(§4) Signal to noise for probe substrates was calculated by dividing the uptake of the probe substrate in transporter-expressing cells by the uptake of probe substrate in control cells not expressing the transporter of interest. Percent inhibition was calculated by dividing the net-transporter-mediated substrate uptake in the presence of the test article or the reference inhibitor by the net-transporter-mediated substrate uptake in the absence of the inhibitor according to the equation: %inhibition=100−(100×(transporter-mediateduptake)withinhibitor/(transporter-mediateduptake)withoutinhibitor).

OAT3 = test system: T3, OAT3; experiment: OAT3 substrate uptake study in MDCK cells; conditions: 10 μM ASO
T3 construct: expressed in transfected cells; host or cells: MDCK-II
Method: as §3, §4

OCT1 = test system: T4, OCT1; experiment: OCT1 substrate uptake study in MDCK cells; conditions: 10 μM ASO
T4 construct: expressed in transfected cells; host or cells: MDCK-II
Method: as §3, §4

OATP1B3 = test system: T5, OATP1B3; experiment: OATP1B3 substrate uptake study in MDCK cells; conditions: 10 μM ASO
T5 construct: expressed in transfected cells; host or cells: MDCK-II
Method: as §3, §4

P-gp = test system: T6, P-gp; experiment: P-gp substrate study, bi-directional flux in MDCK-MDR1 cells; conditions: 10 μM ASO, Papp B to A / Papp A to B
T6 construct: host or cells: MDCK-MDR1 (MDCK cells stably transfected with MDR1)
Method: as §1, §2

OAT1 = test system: T7, OAT1; experiment: OAT1 substrate uptake study in MDCK cells; conditions: 10 μM ASO
T7 construct: expressed in transfected cells; host or cells: MDCK-II
Method: as §3, §4

OATP1B1 = test system: T8, OATP1B1; experiment: OATP1B1 substrate uptake study in MDCK cells; conditions: 10 μM ASO
T8 construct: expressed in transfected cells; host or cells: MDCK-II
Method: as §3, §4

In the case of “ISIS 304801: 20-mer (5-10-5) 2′-MOE gapmer PS backbone antisense inhibitor of apoC-III, sequence AGCTTCTTGTCCAGCTTTAT (sugars from the 5' end e5 d10 e5, all phosphorothioate, methylation of C not given here)”, the “Efflux ratio, BCRP” value (BCRP) is reported as at most 2.0, the “OCT2-mediated uptake relative to corresponding controls” value (OCT2) is reported as under 2 fold and the “OAT3-mediated uptake relative to corresponding controls” value (OAT3) is reported as under 2 fold. For the same substance, the “OCT1-mediated uptake relative to corresponding controls” value (OCT1) was under 2 fold, the “OATP1B3-mediated uptake relative to corresponding controls” value (OATP1B3) was under 2 fold and the “Efflux ratio, P-gp” value (P-gp) was at most 2.0. For the same substance, the “OAT1-mediated uptake relative to corresponding controls” value (OAT1) was under 2 fold and the “OATP1B1-mediated uptake relative to corresponding controls” value (OATP1B1) was under 2 fold.
With “ISIS 420915: 20-mer 2′-MOE gapmer PS backbone antisense inhibitor of transthyretin, sequence TCTTGGTTACATGAAATCCC (all phosphorothioate, sugars by position and methylation of C not given here; 2'-MOE gapmer)” the “Efflux ratio, BCRP” value (BCRP) was at most 2.0, the “OCT2-mediated uptake relative to corresponding controls” value (OCT2) was under 2 fold and the “OAT3-mediated uptake relative to corresponding controls” value (OAT3) was under 2 fold. For the same substance, the “OCT1-mediated uptake relative to corresponding controls” value (OCT1) was under 2 fold, the “OATP1B3-mediated uptake relative to corresponding controls” value (OATP1B3) was under 2 fold and the “Efflux ratio, P-gp” value (P-gp) was at most 2.0. For the same substance, the “OAT1-mediated uptake relative to corresponding controls” value (OAT1) was under 2 fold and the “OATP1B1-mediated uptake relative to corresponding controls” value (OATP1B1) was under 2 fold.
In the case of “ISIS 681257: 20-mer 2′-MOE gapmer PS/PO mixed backbone ASO conjugated to 5′-trishexylamino GalNAc3, targets Lp(a), sequence TGCTCCGTTGGTGCTTGTTC (5' {GalNAc3}, sugars by position and backbone not given here; 2'-MOE gapmer with mixed PS/PO backbone)”, the “Efflux ratio, BCRP” value (BCRP) is reported as at most 2.0, the “OCT2-mediated uptake relative to corresponding controls” value (OCT2) is reported as under 2 fold and the “OAT3-mediated uptake relative to corresponding controls” value (OAT3) is reported as under 2 fold. The “OCT1-mediated uptake relative to corresponding controls” value (OCT1) was under 2 fold, the “OATP1B3-mediated uptake relative to corresponding controls” value (OATP1B3) was under 2 fold and the “Efflux ratio, P-gp” value (P-gp) was at most 2.0. The “OAT1-mediated uptake relative to corresponding controls” value (OAT1) was under 2 fold and the “OATP1B1-mediated uptake relative to corresponding controls” value (OATP1B1) was under 2 fold.

— publication PMC5602538, “Assessment of the Drug Interaction Potential of Unconjugated and GalNAc3-Conjugated 2′-MOE-ASOs” (Molecular Therapy. Nucleic Acids, 2017)
